Results as given in patent publication US9138418B2, “Therapeutic compositions and methods for delivery of active agents cleavably linked to nanoparticles” (priority 2009, dated 2015).

System: MCF-7 breast cancer cells
Assay: MTT cell growth inhibition assay in MCF-7 breast cancer cells
Type: cell-based
Conditions: 72 hours post treatment, concentrations with respect to paclitaxel content
Experimental: The antiproliferative capabilities of PTX-AuNPs from Example 1 were first investigated in vitro. To this end, cellular assays were performed to compare the ability of the PTX-AuNPs to inhibit cell growth relative to the parent drug. Briefly, MCF-7 breast cancer cells were treated over a range of concentrations (based on equivalent PTX content) for all samples and relative cell survival was measured 72 hours post treatment following the MTT protocol. Additionally, the paclitaxel pyruvate compound was also analyzed, as it represented the agent released from the gold surface upon degradation of the hydrazone linker. MCF-7 cells were plated in 6 well plates and allowed to proliferate until approximately 80-90% confluent. Once optimal confluency was reached, increasing concentrations of PTX-AuNPs were added to each well in order to ensure sufficient uptake for imaging (up to 100 μg/mL). Following 12 hours of incubation with PTX-AuNPs, the cells were fixed with a solution of gluteraldehyde and imaged by transmission electron microscopy (TEM). MCF-7 breast cancer cells were plated in 96-well plates at a concentration of 4,000 cells/well (100 μL/well) and allowed to attach for 24 hours. […] Upon agitating the plates for 2 minutes, absorbance values were recorded using a plate reader (Gene Mate, BioTek) equipped with a 570 nm filter.

IC50 (MCF-7 cells) [nM] | IC50 (Homo sapiens, MCF7, MCF-7 cells) [nM] | SMILES
9 |  | CC(=O)OC1C(=O)C2(C)C(O)CC3OCC3(OC(C)=O)C2C(OC(=O)c2ccccc2)C2(O)CC(OC(=O)C(OC(=O)C(C)=O)C(NC(=O)c3ccccc3)c3ccccc3)C(C)=C1C2(C)C (centres unmarked) [paclitaxel pyruvate, Paclitaxel 2′ Pyruvate]
 | ~4 | CC(=O)O[C@H]1C(=O)[C@@]2(C)[C@H]([C@H](OC(=O)c3ccccc3)[C@]3(O)C[C@H](OC(=O)[C@H](O)[C@@H](NC(=O)c4ccccc4)c4ccccc4)C(C)=C1C3(C)C)[C@]1(OC(C)=O)CO[C@@H]1C[C@@H]2O [paclitaxel]
